Source: PubChem BioAssay AID1963874 (Molecular Pharmacology Branch, DTP, NCI, 2024)

Tested on: 253994-281-T-J1-PDC KRAS-mutant spheroids with HUVEC/MSC, viability
Test: Anticancer human tumor 253994-281-T-J1-PDC patient-derived colorectal carcinoma cell line growth inhibition [KRAS2]
Details: for IC50: curve of first compound; for viability, T/C: stronger effect = lower value
How it was run: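 Combination screen of spheroid viability in tumor-cell co-cultures with endothelial (HUVEC) and mesenchymal stem cell stroma. Each agent was tested in half-log dilutions, topping at clinical Cmax or at 10 microM without a known Cmax.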

[1] = second compound 0.1 µM, first compound 0.0316 µM
[2] = second compound 0.1 µM, first compound 0.1 µM
[3] = second compound 0.1 µM, first compound 0.316 µM
[4] = second compound 0.1 µM, first compound 1 µM
[5] = second compound 0.1 µM, first compound 3.16 µM
[6] = second compound 0.1 µM, first compound 10 µM
[7] = second compound 0.316 µM, first compound 0.0316 µM
[8] = second compound 0.316 µM, first compound 0.1 µM
[9] = second compound 0.316 µM, first compound 0.316 µM
[10] = second compound 0.316 µM, first compound 1 µM
[11] = second compound 0.316 µM, first compound 3.16 µM
[12] = second compound 0.316 µM, first compound 10 µM
[13] = second compound 1 µM, first compound 0.0316 µM
[14] = second compound 1 µM, first compound 0.1 µM
[15] = second compound 1 µM, first compound 0.316 µM
[16] = second compound 1 µM, first compound 1 µM
[17] = second compound 1 µM, first compound 3.16 µM
[18] = second compound 1 µM, first compound 10 µM
[19] = second compound 3.16 µM, first compound 0.0316 µM
[20] = second compound 3.16 µM, first compound 0.1 µM
[21] = second compound 3.16 µM, first compound 0.316 µM
[22] = second compound 3.16 µM, first compound 1 µM
[23] = second compound 3.16 µM, first compound 3.16 µM
[24] = second compound 3.16 µM, first compound 10 µM
[25] = second compound 10 µM, first compound 0.0316 µM
[26] = second compound 10 µM, first compound 0.1 µM
[27] = second compound 10 µM, first compound 0.316 µM
[28] = second compound 10 µM, first compound 1 µM
[29] = second compound 10 µM, first compound 3.16 µM
[30] = second compound 10 µM, first compound 10 µM
[31] = second compound 0.1 µM, first compound 0.00316 µM
[32] = second compound 0.1 µM, first compound 0.01 µM
[33] = second compound 0.316 µM, first compound 0.00316 µM
[34] = second compound 0.316 µM, first compound 0.01 µM
[35] = second compound 1 µM, first compound 0.00316 µM
[36] = second compound 1 µM, first compound 0.01 µM
[37] = second compound 3.16 µM, first compound 0.00316 µM
[38] = second compound 3.16 µM, first compound 0.01 µM
[39] = second compound 10 µM, first compound 0.00316 µM
[40] = second compound 10 µM, first compound 0.01 µM
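Also: spheroids exposed to agents for seven days before readout.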
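For viability, T/C in this document: percent of DMSO vehicle control viability.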

SMILES	IC50 (second compound 0.1 µM) [nM]	IC50 (second compound 0.316 µM) [nM]	IC50 (second compound 1 µM) [nM]	IC50 (second compound 3.16 µM) [nM]	IC50 (second compound 10 µM) [nM]	viability, T/C [1] [%]	viability, T/C [2] [%]	viability, T/C [3] [%]	viability, T/C [4] [%]	viability, T/C [7] [%]	viability, T/C [8] [%]	viability, T/C [9] [%]	viability, T/C [10] [%]	viability, T/C [13] [%]	viability, T/C [14] [%]	viability, T/C [15] [%]	viability, T/C [19] [%]	viability, T/C [20] [%]	viability, T/C [25] [%]	viability, T/C [26] [%]	also measured
CC(C)NCC(C(=O)N1CCN(c2ncnc3c2C(C)CC3O)CC1)c1ccc(Cl)cc1 (stereo not given) + CNCc1ccccc1-c1csc(C(C)Nc2nc(C)nc3cc(OC)c(OC)cc23)c1	> 10000	> 10000	> 10000	< 31.6	< 31.6	110	109	99.6	111	110	96	98.2	113	121	108	88.1	38.1	29.8	0.17	0.14	viability, T/C [5]: 94.7%; viability, T/C [6]: 105%; viability, T/C [11]: 107%; viability, T/C [12]: 101%; viability, T/C [16]: 103%; viability, T/C [17]: 95.2%; viability, T/C [18]: 99.4%; viability, T/C [21]: 24%; viability, T/C [22]: 34.8%; viability, T/C [23]: 24.1%; viability, T/C [24]: 40.1%; viability, T/C [27]: 0.14%; viability, T/C [28]: 0.16%; viability, T/C [29]: 0.13%; viability, T/C [30]: 0.27%
CC1(C)CCC(CN2CCN(c3ccc(C(=O)NS(=O)(=O)c4ccc(NCC5CCOCC5)c([N+](=O)[O-])c4)c(Oc4cnc5[nH]ccc5c4)c3)CC2)=C(c2ccc(Cl)cc2)C1 + CNCc1ccccc1-c1csc(C(C)Nc2nc(C)nc3cc(OC)c(OC)cc23)c1	> 10000	6410	4570	< 31.6	< 31.6	99.5	105	101	99.5	86	94.3	86.2	80.9	82.7	83.7	84.2	33.9	29.8	0.15	0.15	viability, T/C [5]: 82.6%; viability, T/C [6]: 69.9%; viability, T/C [11]: 81.4%; viability, T/C [12]: 30.8%; viability, T/C [16]: 78.1%; viability, T/C [17]: 64.6%; viability, T/C [18]: 19.4%; viability, T/C [21]: 38.1%; viability, T/C [22]: 32.9%; viability, T/C [23]: 13.1%; viability, T/C [24]: 6.34%; viability, T/C [27]: 0.13%; viability, T/C [28]: 0.11%; viability, T/C [29]: 0.11%; viability, T/C [30]: 0.17%
CCN1CCN(Cc2ccc(Nc3ncc(F)c(-c4cc(F)c5nc(C)n(C(C)C)c5c4)n3)nc2)CC1 + CNCc1ccccc1-c1csc(C(C)Nc2nc(C)nc3cc(OC)c(OC)cc23)c1	683	530	420	< 3.16	< 3.16	84.1	78.7	71.4	39.8	73.5	85.5	64.7	31.4	78.2	76.3	62.5	36.4	20.3	0.19	0.14	viability, T/C [31]: 97.4%; viability, T/C [32]: 82.5%; viability, T/C [33]: 101%; viability, T/C [34]: 78%; viability, T/C [35]: 82.7%; viability, T/C [36]: 82.2%; viability, T/C [16]: 13.5%; viability, T/C [37]: 44.8%; viability, T/C [38]: 37%; viability, T/C [21]: 11.9%; viability, T/C [22]: 0.18%; viability, T/C [39]: 0.2%; viability, T/C [40]: 0.39%; viability, T/C [27]: 0.34%; viability, T/C [28]: 0.22%
Cn1ncnc1[C@H]1c2n[nH]c(=O)c3cc(F)cc(c23)N[C@@H]1c1ccc(F)cc1 + CNCc1ccccc1-c1csc(C(C)Nc2nc(C)nc3cc(OC)c(OC)cc23)c1	> 100	> 100	> 100	< 0.316	< 0.316	110	99.8			108	79.5			92.3	78.5		28.2	34.9	0.15	0.24	viability, T/C (second compound 0.1 µM, first compound 0.000316 µM): 103%; viability, T/C (second compound 0.1 µM, first compound 0.001 µM): 108%; viability, T/C [31]: 114%; viability, T/C [32]: 84.5%; viability, T/C (second compound 0.316 µM, first compound 0.000316 µM): 93.2%; viability, T/C (second compound 0.316 µM, first compound 0.001 µM): 96.4%; viability, T/C [33]: 105%; viability, T/C [34]: 94.5%; viability, T/C (second compound 1 µM, first compound 0.000316 µM): 94.4%; viability, T/C (second compound 1 µM, first compound 0.001 µM): 91.9%; viability, T/C [35]: 87.4%; viability, T/C [36]: 94.3%; viability, T/C (second compound 3.16 µM, first compound 0.000316 µM): 28.7%; viability, T/C (second compound 3.16 µM, first compound 0.001 µM): 41.5%; viability, T/C [37]: 30.3%; viability, T/C [38]: 38.9%; viability, T/C (second compound 10 µM, first compound 0.000316 µM): 0.15%; viability, T/C (second compound 10 µM, first compound 0.001 µM): 0.19%; viability, T/C [39]: 0.15%; viability, T/C [40]: 0.14%
